Laboratory results: US10869929B2, “Phosphonate linkers and their use to facilitate cellular retention of compounds” (priority 2016, dated 2020)

Experiments:
[1] = system: GILZ gene; assay: GILZ gene assay (qPCR, HUT78 / 786-O cells); assay type: cell-based; details: for EC50: read-out: GILZ EC50
Procedure: GILZ gene assays were conducted as follows. HUT78 cells were cultured in IMEM plus 20% heat inactivated FBS and cell density was maintained between 0.1 to 1.2 million/mL. 786-O cells were cultured in RPMI plus 10% heat inactivated FBS. Actively growing cells were harvested and resuspended in HBSS with 2% FBS at 1.1 million cells per mL then dispensed to 384-well V-bottom plates at 45 μL per well. Serially diluted ADC solution was added to the cell plate (5 μL per well) and mixed for 2 min. Cells were then cultured at 37° C., at 5% CO2 for a designated time before supernatant was removed. Cells were harvested in lysis buffer from the Cells-to-Ct kit (40 μL, Life Technologies, 4391851C) following the supplier's protocol and mixed for 10 min followed by addition of 5 μL per well of stop solution from the kit. cDNA was synthesized with a reverse transcription kit (Life Technologies, 4391852C) follow by qPCR using the TaqMan gene expression master mix (Life Technologies, 4369016) with GILZ gene assay (Life Technologies, Hs00608272_m1) and GAPDH assay (Hs2758991_g1) in a duplex format with 3-4 technical replicates.

[2] = system: MDCKII cells; assay: Apparent permeability in MDCKII cells; assay type: in vitro ADME; details: 1 μM, t=3 hr, average of A to B and B to A Papp
Procedure: Determination of apparent permeability was as follows. MDCKII cells (kindly provided by the Netherlands Cancer Institute, under a licensing agreement) were seeded on to 96-well transwell culture plates (Millipore Corp, Billerica, Mass.) and used in experiments after five days in culture. […] Substrate solution (150 μL) was added to either the apical (A) or the basolateral (B) compartment of the culture plate, and buffer (150 μL; HBSS, 10 mM HEPES, pH 7.4) with 10 μM cyclosporine A was added to the compartment opposite to that containing the substrate. At t=3 hr, 50 μL samples were removed from both sides of monolayers dosed with test compound and placed in 96 well plates, 50 μL internal standard (1 μM labetolol) and 100 μL HBSS was added to the samples. Samples were analyzed by LC/MS/MS using an Applied Biosystems SCIEX API 5000 triple quadruple mass spectrometer (Concord, ON, Canada) with a TurbolonSpray ion source in the positive ion mode. A Thermo Scientific Transcend LX-2 system (Franklin, Mass.) was coupled to the API 5000 with a flow rate of 800 μL/min to direct sample into the mass spectrometer.
Papp was expressed as 10^−6 cm/s.

[3] = target: glucocorticoid receptor (Homo sapiens (Human), UniProt P04150); assay: PolarScreen Glucocorticoid Receptor Competitor Assay (GR binding); details: fluormone GS red, GR full length protein; read-out: GR Bind IC50
glucocorticoid receptor, sequence (P04150 whole entry): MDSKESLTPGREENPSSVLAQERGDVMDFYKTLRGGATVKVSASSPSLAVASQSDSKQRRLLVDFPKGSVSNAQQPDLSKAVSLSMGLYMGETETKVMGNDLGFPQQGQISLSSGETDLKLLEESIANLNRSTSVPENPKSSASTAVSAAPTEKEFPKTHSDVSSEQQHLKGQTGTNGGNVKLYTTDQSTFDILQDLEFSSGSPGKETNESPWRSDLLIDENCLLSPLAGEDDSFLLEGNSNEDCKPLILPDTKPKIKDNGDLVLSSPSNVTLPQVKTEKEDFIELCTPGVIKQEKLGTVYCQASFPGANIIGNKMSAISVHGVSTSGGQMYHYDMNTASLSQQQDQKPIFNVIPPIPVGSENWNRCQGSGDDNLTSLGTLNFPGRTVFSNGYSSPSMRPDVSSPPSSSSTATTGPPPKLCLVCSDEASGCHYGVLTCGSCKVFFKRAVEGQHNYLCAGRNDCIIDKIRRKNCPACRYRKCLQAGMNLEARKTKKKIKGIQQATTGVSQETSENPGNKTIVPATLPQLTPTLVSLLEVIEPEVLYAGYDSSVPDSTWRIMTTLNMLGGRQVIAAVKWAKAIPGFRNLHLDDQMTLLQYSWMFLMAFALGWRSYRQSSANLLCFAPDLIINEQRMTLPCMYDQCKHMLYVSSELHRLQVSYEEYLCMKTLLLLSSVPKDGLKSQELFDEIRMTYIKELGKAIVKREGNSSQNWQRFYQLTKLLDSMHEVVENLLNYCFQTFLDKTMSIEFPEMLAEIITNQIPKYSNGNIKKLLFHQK
Procedure: The potency of binding to glucocorticoid receptor by small molecule compounds was measured with the PolarScreen™ Glucocorticoid Receptor Competitor Assay Kit, Red (Life Technology, Catalog #A15898) according to the procedure in the kit. In brief, after compounds were diluted and transferred into assay plates, the fluormone GS red and GR full length protein were subsequently added into the assay plates, along with the positive and negative controls. The samples were mixed on a shaker for 1 minute and then the plates were incubated at room temperature for 2-4 hours with minimal light exposure. The plates were read with an Envision and the relative fluorescent signals were calculated. The data were plotted in GraphPad Prism and the EC50 values were calculated with non-linear regression curve fit of the data in GraphPad Prism.

[4] = system: ZBTB16 mRNA; assay: Up-regulation of ZBTB16 mRNA in primary human B cells; assay type: cell-based; details: free payload
Procedure: The carrier solution for all ADCs and naked antibodies was 50 mM histidine pH 6.0, 100 mM NaCl and 5% trehelose. To assure consistency across experiments, ADCs were thawed on ice, dispensed to small aliquots, frozen to −80° C., and those aliquots were then used for experiments with unused material discarded at the end of the day. For all in vitro studies in this report, none of the read outs were measurably different in the presence or absence of the carrier solution. Nevertheless, the final concentration of antibody carrier solution was maintained constant at 1% v/v by serially diluting antibody solution prior to addition to the assay mixture and adding carrier solution to control wells.
For the studies of ADCs bearing reduced permeability payloads frozen human CD19+ B cells purchased from Precision Biosciences (catalog #84400, donor #13108) were thawed and re-suspended in RPMI1640 plus 10% heat-inactivated FBS (cell culture medium) at 1 million cells/mL. […] B cells were bulk treated in a 96-well block and subsequently dispensed to 96 well plates (100 μL and […] cells per well) and incubated at 37° C., 5% CO2 for 18 or 40 hr. Control wells containing equal percentages of DMSO (0.1%) and ADC buffer (1%) as sample wells were included. Cells were transferred to a 96 well v-bottom plate and spun at 500×g for 5 min. Medium was removed and cells were lysed in 150 μL RLT buffer containing beta-mercaptoethanol. RNA was isolated (RNeasy 96 kit, Qiagen, Cat #74181) and cDNA was synthesized (iScript cDNA Synthesis Kit, BioRad, Cat #170-8891) according to the supplier's protocol. Quantitative PCR was performed on Applied Biosystem's 7900 HT Real-Time PCR System to measure expression of ZBTB16 (Life Technologies, Hs00957433_m1) and GAPDH (Life Technologies, Hs02758991_g1) in duplex format.
The ΔΔCt method was used to calculate fold change of expression of ZBTB16 relative to control sample, using 3 replicates per treatment condition. For free cell impermeable compounds, B cells were seeded at 100,000 cells/well in 90 μL in a 96-well flat bottom plate. Three fold serial dilutions were performed in DMSO, subsequent intermediate 10× stocks were made in tissue-culture medium and then added to the cell plate (10 μL/well). Cells were incubated at 37° C., 5% CO2 for 18 hr, harvested and processed for PCR as described above. EC50 curves were calculated using Graph Pad Prism 6 software using nonlinear fit (agonist) vs. response-variable slope (four parameters) calculation.
Potency and maximum activity of reduced permeability glucocorticoids (free payload) and the corresponding anti-CD74-drug conjugates on up-regulation of ZBTB16 mRNA levels in primary human B cells in vitro.

Compound | GILZ Max ([1]; concentration not given) [%] | EC50 [1] [nM] | MDCK Permeability (cm × 10−6/sec) [2] [cm × 10−6/sec] | IC50 [3] [nM] | GILZ Max ([1]; at 100 nM) | GILZ Max ([1]; at 10 uM) | EC50 [4] [nM]
CCCC1O[C@@H]2C[C@H]3[C@@H]4CCC5=CC(=O)C=C[C@]5(C)[C@H]4[C@@H](O)C[C@]3(C)[C@]2(C(=O)CO)O1 (stereo partly drawn) [Budesonide, reference compound] | 100 | 1 | 31.6 |  |  |  | 
CCC(=O)O[C@]1(C(=O)SCCCCP(=O)(O)O)[C@H](C)C[C@H]2[C@@H]3C[C@H](F)C4=CC(=O)C=C[C@]4(C)[C@@]3(F)[C@@H](O)C[C@@]21C [Compound 4] |  | > 100 | 1.72 | 0.71 | <10% (at |  | 
C[C@@H]1C[C@H]2[C@@H]3C[C@H](F)C4=CC(=O)C=C[C@]4(C)[C@@]3(F)[C@@H](O)C[C@]2(C)[C@@]1(O)C(=O)SCCCCP(=O)(O)O [Compound 5] |  | > 10000 | 1.84 | 160 | 24% (at |  | 
CCC(=O)O[C@]1(C(=O)SCCOCCOCCP(=O)(O)O)[C@H](C)C[C@H]2[C@@H]3C[C@H](F)C4=CC(=O)C=C[C@]4(C)[C@@]3(F)[C@@H](O)C[C@@]21C [Compound 6] |  | > 10000 |  | 0.32 |  | 40% (at | 
CCC(=O)O[C@]1(C(=O)SCCCCCCP(=O)(O)O)[C@H](C)C[C@H]2[C@@H]3C[C@H](F)C4=CC(=O)C=C[C@]4(C)[C@@]3(F)[C@@H](O)C[C@@]21C [Compound 7] |  | 6450 | 2 | 0.45 |  | 64% (at | 
C[C@@H]1C[C@H]2[C@@H]3C[C@H](F)C4=CC(=O)C=C[C@]4(C)[C@@]3(F)[C@@H](O)C[C@]2(C)[C@@]1(O)C(=O)SCCCCCCCCCCP(=O)(O)O [Compound 8] |  | 970 | 2.8 | 0.25 |  | 66% (at | 
C[C@@H]1C[C@H]2[C@@H]3C[C@H](F)C4=CC(=O)C=C[C@]4(C)[C@@]3(F)[C@@H](O)C[C@]2(C)[C@@]1(O)C(=O)SCCOCCOCCP(=O)(O)O [Compound 9] |  | > 10000 |  | 1.67 |  | 14.5% | 
C[C@@H]1C[C@H]2[C@@H]3C[C@H](F)C4=CC(=O)C=C[C@]4(C)[C@@]3(F)[C@@H](O)C[C@]2(C)[C@@]1(O)C(=O)SCCCCCCP(=O)(O)O [Compound 10] |  | > 10000 | 1.9 | 1.99 |  | 17.3% | 
C[C@@H]1C[C@H]2[C@@H]3C[C@H](F)C4=CC(=O)C=C[C@]4(C)[C@@]3(F)[C@@H](O)C[C@]2(C)[C@@]1(O)C(=O)SCCP(=O)(O)O [Compound 11] |  | 2860 |  |  |  | 81% (at | 
CCC(=O)O[C@]1(C(=O)SCCP(=O)(O)O)[C@H](C)C[C@H]2[C@@H]3C[C@H](F)C4=CC(=O)C=C[C@]4(C)[C@@]3(F)[C@@H](O)C[C@@]21C [Compound 12] |  | 6780 |  | 162 |  | 36% (at | 
C[C@@H]1C[C@H]2[C@@H]3C[C@H](F)C4=CC(=O)C=C[C@]4(C)[C@@]3(F)[C@@H](O)C[C@]2(C)[C@@]1(O)C(=O)SCCCP(=O)(O)O [Compound 13] |  | > 10000 |  | 1220 |  | 24% (at | 
CCC(=O)O[C@]1(C(=O)SCCCP(=O)(O)O)[C@H](C)C[C@H]2[C@@H]3C[C@H](F)C4=CC(=O)C=C[C@]4(C)[C@@]3(F)[C@@H](O)C[C@@]21C [Compound 14] |  | > 10000 |  | 18.1 |  | 15% (at | 
C[C@@H]1C[C@H]2[C@@H]3C[C@H](F)C4=CC(=O)C=C[C@]4(C)[C@@]3(F)[C@@H](O)C[C@]2(C)[C@@]1(OC(=O)CCCCCP(=O)(O)O)C(=O)SCF [Compound 19, (6-(((6S,8S,9R,10S,11S,13S,14S,16R,17R)-6,9-difluoro-17-(((fluoromethyl)thio)carbonyl)-11-hydroxy-10,13,16-trimethyl-3-oxo-6,7,8,9,10,11,12,13,14,15,16,17-dodecahydro-3H-cyclopenta[a]phenanthren-17-yl)oxy)-6-oxohexyl)phosphonic acid] |  | 1290 |  | 0.14 |  | 88% (at | 
CCCC1O[C@@H]2C[C@H]3[C@@H]4CCC5=Cc6c(cnn6-c6cccc(OCCCCP(=O)(O)O)c6)C[C@]5(C)[C@H]4[C@@H](O)C[C@]3(C)[C@]2(C(=O)CO)O1 (stereo partly drawn) [Compound 28] |  | 1270 | 1.6 | 4.1 |  | 101% (at | 
CCCC1O[C@@H]2C[C@H]3[C@@H]4CCC5=Cc6c(cnn6-c6cccc(OCCCCCCCCCP(=O)(O)O)c6)C[C@]5(C)[C@H]4[C@@H](O)C[C@]3(C)[C@]2(C(=O)CO)O1 (stereo partly drawn) [Compound 29] |  | 558 |  | 24.2 |  | 96% (at | 
CCCC1O[C@@H]2C[C@H]3[C@@H]4CCC5=Cc6c(cnn6-c6ccc(OCCCCP(=O)(O)O)cc6)C[C@]5(C)[C@H]4[C@@H](O)C[C@]3(C)[C@]2(C(=O)CO)O1 (stereo partly drawn) [Compound 30] |  | 3010 | 1.9 | 2.4 |  | 61% (at | 
CCCC1O[C@@H]2C[C@H]3[C@@H]4CCC5=Cc6c(cnn6-c6ccc(OCCCCCCP(=O)(O)O)cc6)C[C@]5(C)[C@H]4[C@@H](O)C[C@]3(C)[C@]2(C(=O)CO)O1 (stereo partly drawn) [Compound 31] |  | 4180 | 4.1 | 3.9 |  | 47% (at | 
CCCC1O[C@@H]2C[C@H]3[C@@H]4CCC5=Cc6c(cnn6-c6ccc(OCCCCCCCCCP(=O)(O)O)cc6)C[C@]5(C)[C@H]4[C@@H](O)C[C@]3(C)[C@]2(C(=O)CO)O1 (stereo partly drawn) [Compound 32] |  | 4150 |  | 115 |  | 86% (at | 
C[C@@H]1C[C@H]2[C@@H]3CCC4=CC(=O)C=C[C@]4(C)[C@@]3(F)[C@@H](O)C[C@]2(C)[C@@]1(O)C(=O)CO [Dexamethasone, reference compound] | 100 | 3.7 |  |  |  |  | 
CCC(=O)O[C@]1(C(=O)SCF)[C@H](C)C[C@H]2[C@@H]3C[C@H](F)C4=CC(=O)C=C[C@]4(C)[C@@]3(F)[C@@H](O)C[C@@]21C [Fluticasone Propionate, reference compound] | 100 | 0.2 | 21.5 |  |  |  | 0.019
(6-(3-((3aR,4aS,4bS,11aR,11bS,12S,13aS,13bS)-12-hydroxy-13b-(2-hydroxyacetyl)-11a,13a-dimethyl-2-propyl-4,4a,5,6,11,11a,11b,12,13,13a-decahydro-[1,3]dioxolo[4″,5″:3′,4′]cyclopenta[1′,2′:5,6]naphtho[1,2-f]indazol-8 (3aH,4bH,13bH)-yl)phenoxy)hexyl)phosphonic acid [Compound 27] |  | 2760 |  |  |  | 80% (at | 
